{
  "source": "patent US10111937B2",
  "about": "“Method of reducing accumulation of intracellular tingible body macrophages” (THE REGENTS OF THE UNIVERSITY OF MICHIGAN, priority 2008, dated 2018)",
  "molecules": {"B1": {"name": "Recombinant glycosylated mouse LPLA2: Recombinant glycosylated mouse LPLA2 produced by HEK293 cells (protein, UniProt Q8VEB4 34-412, looked up)", "Lysosomal phospholipase A and …": "AQRHPPVVLVPGDLGNQLEAKLDKPKVVHYLCSKKTDSYFTLWLNLELLLPVIIDCWIDNIRLVYNRTSRATQFPDGVDVRVPGFGETFSMEFLDPSKRNVGSYFYTMVESLVGWGYTRGEDVRGAPYDWRRAPNENGPYFLALREMIEEMYQMYGGPVVLVAHSMGNVYMLYFLQRQPQVWKDKYIHAFVSLGAPWGGVAKTLRVLASGDNNRIPVIGPLKIREQQRSAVSTSWLLPYNHTWSHEKVFVYTPTTNYTLRDYHRFFRDIGFEDGWFMRQDTEGLVEAMTPPGVELHCLYGTGVPTPNSFYYESFPDRDPKICFGDGDGTVNLESVLQCQAWQSRQEHRVSLQELPGSEHIEMLANATTLAYLKRVLLEP", "modifications": "HEK293-produced glycosylated", "notes": "Recombinant glycosylated mouse LPLA2 produced by HEK293 cells"}, "B2": {"name": "His-tagged mouse LPLA2: His-tagged recombinant mouse lysosomal phospholipase A2 applied to LPLA2 null alveolar macrophages (protein)", "chain": "B1 Lysosomal phospholipase A and …", "modifications": "left off: small tags and cut ends", "notes": "His-tagged recombinant mouse lysosomal phospholipase A2 applied to LPLA2 null alveolar macrophages"}},
  "key": {"[1]": {"tested_on": "LPLA2 null alveolar macrophages", "experiment": "Uptake of recombinant LPLA2 into LPLA2 null alveolar macrophages (Western blotting, confocal microscopy, enzyme activity)", "assay_type": "cell-based, mouse", "source_text": "Recombinant glycosylated mouse LPLA2 produced by HEK293 cells was applied to LPLA2-deficient (LPLA2−/−) mouse alveolar macrophages. […] Thus, the predominant pathway for uptake of exogenous LPLA2 is via the mannose receptor. (Abe et al., J. Immunol, 181(11):7873-81, 2008).\nThe ability of macrophages from LPLA2−/− mice to recognize, endocytose, and traffic recombinant LPLA2 was studied as follows. LPLA2 null alveolar macrophages were exposed to His-tagged mouse LPLA2 for 1 day at concentrations varying between 0.3 and 10 μg/ml. Cell incorporation was measured by Western blotting and confocal microscopy using either anti-His antibody or a monoclonal antibody raised to LPLA2.\n(§1) Finally, the ability of the recombinant enzyme to “rescue” the cellular phenotype was confirmed by measuring the cellular phospholipid content."}, "[2]": {"tested_on": "LPLA2 null alveolar macrophages", "conditions": "Abe et al. J. Immunol 2008; cited from earlier work"}, "LPLA2 [3]": {"target": "T1, LPLA2 (Homo sapiens, UniProt Q8NCC3)", "T1 sequence (Q8NCC3 34-412)": "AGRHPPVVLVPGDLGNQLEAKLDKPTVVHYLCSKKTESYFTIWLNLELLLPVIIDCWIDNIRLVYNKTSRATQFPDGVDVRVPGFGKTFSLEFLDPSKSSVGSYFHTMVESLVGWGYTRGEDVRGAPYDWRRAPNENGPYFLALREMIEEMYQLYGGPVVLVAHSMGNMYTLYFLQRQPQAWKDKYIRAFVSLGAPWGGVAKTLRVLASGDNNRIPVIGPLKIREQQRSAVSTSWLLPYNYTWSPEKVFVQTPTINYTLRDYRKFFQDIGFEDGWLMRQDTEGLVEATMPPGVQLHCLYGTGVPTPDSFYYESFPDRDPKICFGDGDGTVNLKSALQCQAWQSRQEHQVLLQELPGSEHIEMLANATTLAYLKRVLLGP", "conditions": "background description; cited from earlier work"}, "recombinant mouse LPLA2 [4]": {"target": "T2, recombinant mouse LPLA2 (Mus musculus, UniProt Q8VEB4)", "T2 sequence (Q8VEB4 34-412)": "B1 Lysosomal phospholipase A and …", "experiment": "1-O-acylceramide synthase (transacylase) activity of recombinant LPLA2 on liposomes, 1-O-oleoyl-NAS by HPTLC", "assay_type": "biochemical", "conditions": "DOPC/sulfatide/NAS liposomes vs DOPC/NAS, pH 4.5, 5-45 min at 37° C.; FIGS. 11A and 11B", "method": "To address this possibility, the 1-O-acylceramide synthase activity of LPLA2 was studied in liposomes in which the anionic lipid content was varied by the addition of sulfatide, a negatively charged, sulfate containing glycolipid that is not a substrate for LPLA2. Di-octanoyl-PC (DOPC) was used as the liposomal substrate. The reaction mixture contained 48 mM sodium citrate (pH 4.5), 10 μg/ml BSA, liposomes (127 μM phospholipid) and 14.5 ng/ml of recombinant mouse LPLA2 in 500 μl of total volume. Liposomes consisting of DOPC/NAS (3:1, molar ratio) or DOP/sulfatide/NAS (3:0.3:1, molar ratio) were incubated with the enzyme for 5, 10, 15, 30 and 45 min at 37° C. The reaction products were extracted and separated by an HPTLC plate using a solvent system consisting of chloroform/acetic acid (9:1, v/v). The reaction product, 1-O-oleoyl-NAS, quantified by scanning the plate, was plotted against time (FIG. 11A). Liposomes consisting of DOPC/galactosylceramide/NAS or DOPC/sulfatide/NAS with a different molar ratio were incubated with the recombinant enzyme at 37° C. (FIG. 11B)."}, "recombinant mouse LPLA2 [5]": {"target": "T2, recombinant mouse LPLA2", "experiment": "Co-sedimentation of LPLA2 with liposomes (ultracentrifugation, SDS-PAGE)", "assay_type": "binding", "conditions": "DOPC or DOPC/sulfatide (10:1) liposomes; 33 μM amiodarone; FIGS. 13B and 13C", "description": "Liposomes consisting of DOPC or DOPC/sulfatide (10:1, molar ratio) were incubated with varying amounts of recombinant mouse LPLA2 in 500 μl of 48 mM Na-citrate (pH 4.5) for 30 min on ice (FIG. 13A). […] The reaction mixtures were centrifuged for 1 h at 150,000 g at 4° C. The concentration of DOPC in these assays was 127 μM. The resultant precipitates were briefly washed with cold 50 mM Na-citrate (pH 4.5) and dissolved with 40 μl of SDS-polyacrylamide gel electrophoresis sampling buffer. The samples were separated by using 12% SDS-polyacrylamide gel. After electrophoresis, LPLA2 was detected by staining with CBB."}, "LPLA2 [6]": {"target": "T3, LPLA2 (Canis lupus familiaris, UniProt Q6XPZ3)", "T3 construct": "endogenous in cells; host or cells: MDCK cells", "T3 sequence (Q6XPZ3 32-408)": "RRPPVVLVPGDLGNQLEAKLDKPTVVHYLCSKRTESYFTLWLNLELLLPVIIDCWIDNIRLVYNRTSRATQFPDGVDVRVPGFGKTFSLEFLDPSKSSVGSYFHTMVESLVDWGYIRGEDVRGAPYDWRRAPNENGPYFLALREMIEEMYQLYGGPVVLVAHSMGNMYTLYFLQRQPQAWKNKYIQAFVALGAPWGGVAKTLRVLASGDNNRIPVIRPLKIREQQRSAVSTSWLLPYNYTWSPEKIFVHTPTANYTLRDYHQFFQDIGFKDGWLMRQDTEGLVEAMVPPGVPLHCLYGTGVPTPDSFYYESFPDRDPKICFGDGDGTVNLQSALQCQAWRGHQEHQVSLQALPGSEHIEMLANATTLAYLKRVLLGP", "experiment": "LPLA2 activity in MDCK cells treated with cationic amphiphilic drugs, measured as transacylation of N-acetylsphingosine", "assay_type": "cell-based", "description": "LPLA2 activity was measured as the transacylation of N-acetylsphingosine. […] The major cellular phospholipids were assayed following 1 or 7 days of exposure to the CAD."}, "[7]": {"tested_on": "acidic transacylation of ceramide", "conditions": "lysosomal fraction of cells; earlier observation; cited from earlier work"}, "[8]": {"tested_on": "LPLA2 null alveolar macrophages", "experiment": "Rescue of cellular phospholipid content in LPLA2 null alveolar macrophages by recombinant enzyme", "assay_type": "cell-based, mouse", "conditions": "LPLA2 null alveolar macrophages treated with enzyme", "source_text": "as §1"}},
  "data": [
    {"molecule": "COC1O[C@H](CO)[C@@H](O)[C@H](O)[C@@H]1O", "note": "(stereo partly drawn) [α-Methyl-mannoside, α-methyl-mannoside]", "values": [
      {"measurement": "blocking of incorporation of recombinant LPLA2", "setting": "[1]; 10 mM, 1-O-acyl-ceramide synthase activity, immunoblotting, confocal microscopy", "result": "blocked the incorporation of LPLA2"},
      {"measurement": "suppression of uptake of exogenous LPLA2", "setting": "[2]", "result": "significantly suppressed"}
    ]},
    {"molecule": "O=C1O/C(=C/Br)CCC1c1cccc2ccccc12", "note": "(centres unmarked) [bromoenollactone]", "values": [
      {"measurement": "inhibition of LPLA2 enzyme activity", "setting": "LPLA2 [3]", "result": "do not inhibit the enzyme activity"}
    ]},
    {"molecule": "sulfatide", "values": [
      {"measurement": "transacylation activity in presence of anionic lipid", "setting": "recombinant mouse LPLA2 [4]", "result": "time dependent increase in the transacylation activity"},
      {"measurement": "physical association between LPLA2 and liposomes", "setting": "recombinant mouse LPLA2 [5]", "result": "increased"}
    ]},
    {"molecule": "CCCCCCCCCC(=O)NC(CN1CCOCC1)C(O)c1ccccc1", "note": "(centres unmarked) [PDMP, 1-phenyl-2-decanoylamino-3-morpholino-1-propanol]", "values": [
      {"measurement": "inhibition of LPLA2 activity as measured by ceramide transacylation", "setting": "LPLA2 [6]; MDCK cells treated for 1 or seven days, FIG. 10A", "result": "concentration dependent inhibition of LPLA2 activity"},
      {"measurement": "IC50 for enzyme inhibition", "setting": "LPLA2 [6]; MDCK cells, no numbers given", "result": "comparable IC50s"},
      {"measurement": "inhibition of acidic transacylation of ceramide", "setting": "[7]", "result": "inhibit acidic transacylation of ceramide"}
    ]},
    {"molecule": "CCCCC/C=C\\C/C=C\\C/C=C\\C/C=C\\CCCC(=O)C(F)(F)F", "note": "[nonadecyltetraenyl trifluoromethyl ketone]", "values": [
      {"measurement": "inhibition of LPLA2 enzyme activity", "setting": "LPLA2 [3]", "result": "do not inhibit the enzyme activity"}
    ]},
    {"molecule": "CCCCc1oc2ccccc2c1C(=O)c1cc(I)c(OCCN(CC)CC)c(I)c1", "note": "[amiodarone]", "values": [
      {"measurement": "physical association between LPLA2 and liposomes", "setting": "recombinant mouse LPLA2 [5]", "result": "inhibited"}
    ]},
    {"molecule": "B1", "values": [
      {"measurement": "uptake of exogenous LPLA2 into LPLA2−/− alveolar macrophages", "setting": "[2]", "result": "occurred in a concentration-dependent manner"}
    ]},
    {"molecule": "B2", "values": [
      {"measurement": "cellular LPLA2 (cell incorporation)", "setting": "[1]; 1 day at 0.3 to 10 μg/ml, Western blotting, confocal microscopy, enzyme activity", "result": "concentration dependent increase in cellular LPLA2"},
      {"measurement": "co-localization with lysosome protein Lamp-1", "setting": "[1]; cells stained with anti-LPLA2 and Lamp-1 antibodies", "result": "readily detected"},
      {"measurement": "cell phosphatidylcholine and phosphatidylethanolamine content", "setting": "[8]", "result": "concentration dependent decrease in cell phosphatidylcholine and phosphatidylethanolamine"}
    ]}
  ]
}
